The numbers were not newly measured in patent US10716771B2, “Pharmaceutical composition for preventing or treating immune diseases or inflammatory diseases, containing biguanide derivative compound as active ingredient” (THE CATHOLIC UNIVERSITY OF KOREA INDUSTRY-ACADEMIC …, priority 2013, dated 2020), which cites them from elsewhere.

The subject of this series is TNF-α. Conditions: stated as known; cited from earlier work.

As for `CN(C)C(=N)N=C(N)N` [Metformin], the “effect of blocking TNF-α” value is “slight effect”.
